According to US8119681B2, “2-[1-phenyl-5-hydroxy or methoxy-4alpha-methyl-hexahydrocyclopenta [ƒ]indazole-5-YL]ethyl phenyl derivatives as glucocorticoid receptor ligands” (Merck Sharp & Dohme Corp., priority 2006, dated 2012):

Target: T1, glucocorticoid receptor (GR) (Homo sapiens, UniProt P04150)
T1 construct: endogenous in cells; host or cells: HeLa (ATCC) cell lysate supernatant
T1 sequence (P04150 1-777): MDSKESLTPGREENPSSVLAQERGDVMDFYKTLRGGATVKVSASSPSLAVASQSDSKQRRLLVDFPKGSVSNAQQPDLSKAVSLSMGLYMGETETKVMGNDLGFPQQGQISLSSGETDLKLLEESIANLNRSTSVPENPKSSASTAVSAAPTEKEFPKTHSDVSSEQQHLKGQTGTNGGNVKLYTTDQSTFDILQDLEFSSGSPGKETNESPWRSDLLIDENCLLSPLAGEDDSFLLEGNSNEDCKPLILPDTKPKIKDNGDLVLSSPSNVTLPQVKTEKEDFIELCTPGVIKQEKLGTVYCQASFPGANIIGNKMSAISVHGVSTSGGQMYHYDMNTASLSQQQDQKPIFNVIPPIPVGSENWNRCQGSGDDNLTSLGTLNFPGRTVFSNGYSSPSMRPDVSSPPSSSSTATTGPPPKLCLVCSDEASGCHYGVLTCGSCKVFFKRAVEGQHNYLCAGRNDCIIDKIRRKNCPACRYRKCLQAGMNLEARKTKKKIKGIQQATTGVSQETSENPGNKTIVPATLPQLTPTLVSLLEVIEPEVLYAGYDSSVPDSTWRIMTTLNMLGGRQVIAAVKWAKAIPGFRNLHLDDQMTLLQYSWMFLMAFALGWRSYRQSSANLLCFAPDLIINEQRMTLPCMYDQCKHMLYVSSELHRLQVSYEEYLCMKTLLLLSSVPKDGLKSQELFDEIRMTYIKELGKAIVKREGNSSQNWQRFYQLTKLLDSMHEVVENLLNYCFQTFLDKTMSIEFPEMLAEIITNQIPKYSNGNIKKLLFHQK
Assay: Ligand binding assay (GR BIND), 3H-dexamethasone displacement, HeLa cell lysate
Method: Binding Buffer: TEGM (10 mM Tris-HCl, 1 mM EDTA, 10% glycerol, 1 mM beta-mercaptoethanol, 10 mM Sodium Molybdate, pH 7.2)
50% HAP Slurry: Calbiochem Hydroxylapatite, Fast Flow, in 10 mM Tris, pH 8.0 and 1 mM EDTA.
Wash Buffer: 40 mM Tris, pH7.5, 100 mM KCl, 1 mM EDTA and 1 mM EGTA.
Dexmethasone-methyl-^3H, (DEX*); (Amersham cat# TRK645)
Dexamethasone (DEX) (Sigma, cat# D1756):
Phenol red-free Trypsin-EDTA is diluted in the same PBS 1:10. The cell layers are rinsed with 1× Trypsin, extra Trypsin is poured out, and the cell layers are incubated at 37° C. for ˜2 min. The flask is tapped and checked for signs of cell detachment. Once the cells begin to slide off the flask, the complete media is added. The cells are counted at this point, then diluted to the appropriate concentration and split into flasks or dishes for further culturing (Usually 1:3 to 1:6 dilution).
Preparation of Hela Cell Lysate
The cell pellet is washed twice with TEGM (10 mM Tris-HCl, 1 mM EDTA, 10% glycerol, 1 mM beta-mercaptoethanol, 10 mM Sodium Molybdate, pH 7.2). After the final wash, the cells are resuspended in TEGM at a concentration of 10^7 cells/mL. The cell suspension is snap frozen in liquid nitrogen or ethanol/dry ice bath and transferred to −80° C. freezer on dry ice. Before setting up the binding assay, the frozen samples are left on ice-water to just thaw (˜1 hr). Then the samples are centrifuged at 12,500 g to 20,000 g for 30 min at 4° C. The supernatant is used to set-up assay right away. If using 50 μL of supernatant, the test compound can be prepared in 50 μL of the TEGM buffer.
Procedure for Multiple Compound Screening
1×TEGM buffer is prepared, and the isotope-containing assay mixture is prepared in the following order: EtOH (2% final concentration in reaction), 3H-DEX (Amersham Biosciences) and 1×TEGM. [e.g. For 100 samples, 200 μL (100×2) of EtOH+4.25 μL of 1:10 ^3H-Dex stock+2300 μL (100×23) 1×TEGM]. The compound is serially diluted, e.g., if starting final conc. is 1 μM, and the compound is in 25 μL of solution, for duplicate samples, 75 μL of 4×1 μM solution is made and 3 μL of 100 μM is added to 72 μL of buffer, and 1:5 serial dilution.
25 μL of ^3H-DEX (6 nM) trace and 25 μL compound solution are first mixed together, followed by addition of 50 μL receptor solution. The reaction is gently mixed, spun briefly at about 200 rpm and incubated at 4° C. overnight. 100 μL of 50% HAP slurry is prepared and added to the incubated reaction which is then vortexed and incubated on ice for 5 to 10 minutes. The reaction mixture is vortexed twice more to resuspend HAP while incubating reaction. The samples in 96-well format are then washed in wash buffer using The FilterMate™ Universal Harvester plate washer (Packard). The washing process transfers HAP pellet containing ligand-bound expressed receptor to Unifilter-96 GF/B filter plate (Packard). The HAP pellet on the filter plate is incubated with 50 μL of MICROSCINT (Packard) scintillant for 30 minutes before being counted on the TopCount microscintillation counter (Packard). IC50s are calculated using DEX as a reference.

[1] = Table 1, HeLa cell lysate, 3H-DEX
[2] = Table 2, prior-art comparison compounds

Ki [1]	Ki [2]	SMILES
1.14 nM	–	CC(C)CNC(=O)c1ccccc1CC[C@]1(O)CCC2=Cc3c(cnn3-c3ccc(F)cc3)C[C@@]21C [Example 29, 2-{2-[(4αS,5R)-1-(4-fluorophenyl)-5-hydroxy-4α-methyl-1,4,4α,5,6,7-hexahydrocyclopenta[f]indazol-5-yl]ethyl}-N-isobutylbenzamide]
2.44 nM	–	C[C@]12Cc3cnn(-c4ccc(F)cc4)c3C=C1CC[C@@]2(O)CCc1ccccc1C(F)C(N)=O (single isomer, unassigned) [Example 198]
6.59 nM	–	C[C@]12Cc3cnn(-c4ccc(F)c(F)c4)c3C=C1CC[C@@]2(O)CCc1ccccc1C(N)=O [Example 172, 2-{2-[(4αS,5R)-1-(3,4-difluorophenyl)-5-hydroxy-4α-methyl-1,4,4α,5,6,7-hexahydrocyclopenta[f]indazol-5-yl]ethyl}benzamide]
2.51 nM	–	Cc1cccc(CC[C@]2(O)CCC3=Cc4c(cnn4-c4cccc(F)c4)C[C@@]32C)c1C(N)=O [Example 191, 2-{2-[(4αS,5R)-1-(3-fluorophenyl)-5-hydroxy-4α-methyl-1,4,4α,5,6,7-hexahydrocyclopenta[f]indazol-5-yl]ethyl}-6-methylbenzamide]
2.9 nM	–	C[C@]12Cc3cnn(-c4ccc(F)cc4)c3C=C1CC[C@@]2(O)CCc1ccccc1C(=O)N1CC(=O)C1 [Example 156, 1-(2-{2-[(4αS,5R)-1-(4-fluorophenyl)-5-hydroxy-4α-methyl-1,4,4α,5,6,7-hexahydrocyclopenta[f]indazol-5-yl]ethyl}benzoyl)azetidin-3-one]
0.8 nM	–	COC(=O)C(C)(C)NC(=O)c1ccccc1CC[C@]1(O)CCC2=Cc3c(cnn3-c3ccc(F)cc3)C[C@@]21C [Example 52, methyl N-(2-{2-[(4αS,5R)-1-(4-fluorophenyl)-5-hydroxy-4α-methyl-1,4,4α,5,6,7-hexahydrocyclopenta[f]indazol-5-yl]ethyl}benzoyl)-2-methylalaninate]
5.62 nM	–	CC(C)C(O)(C(N)=O)c1ccccc1CC[C@]1(O)CCC2=Cc3c(cnn3-c3ccc(F)cc3)C[C@@]21C (stereo partly drawn) [Example 201, 2-(2-{2-[(4αS,5R)-1-(4-fluorophenyl)-5-hydroxy-4α-methyl-1,4,4α,5,6,7-hexahydrocyclopenta[f]indazol-5-yl]ethyl}phenyl)-2-hydroxy-3-methylbutanamide]
3.55 nM	–	CC(C)NC(=O)c1ccccc1CC[C@]1(O)CCC2=Cc3c(cnn3-c3ccc(F)cc3)C[C@@]21C [Example 35, 2-{2-[(4αS,5R)-1-(4-fluorophenyl)-5-hydroxy-4α-methyl-1,4,4α,5,6,7-hexahydrocyclopenta[f]indazol-5-yl]ethyl}-N-isopropylbenzamide]
11.5 nM	–	C[C@]12Cc3cnn(-c4ccc(F)cc4)c3C=C1CC[C@@]2(O)CCc1ccccc1C(=O)N1CCCC1 [Example 47, (4αS,5R)-1-(4-fluorophenyl)-4α-methyl-5-{2-[2-(pyrrolidin-1-ylcarbonyl)phenyl]ethyl}-1,4,4α,5,6,7-hexahydrocyclopenta[f]indazol-5-ol]
–	1.27 nM	C[C@]12Cc3cnn(-c4ccc(F)cc4)c3C=C1CCC[C@@H]2[C@@H](O)Cc1ccccc1 [Example 22 WO 03/086294 A2, reference compound]
0.4 nM	–	CN(C)S(=O)(=O)NCc1c(F)cccc1CC[C@]1(O)CCC2=Cc3c(cnn3-c3ccc(F)cc3)C[C@@]21C [Example 89, N′-(2-fluoro-6-{2-[(4αS,5R)-1-(4-fluorophenyl)-5-hydroxy-4α-methyl-1,4,4α,5,6,7-hexahydrocyclopenta[f]indazol-5-yl]ethyl}benzyl)-N,N-dimethylsulfamide]
1.17 nM	–	C[C@]12Cc3cnn(-c4ccc(F)cc4)c3C=C1CC[C@@]2(O)CCc1ccccc1NS(=O)(=O)C1CC1 [Example 15, N-(2-{2-[(4αS,5R)-1-(4-fluorophenyl)-5-hydroxy-4α-methyl-1,4,4α,5,6,7-hexahydrocyclopenta[f]indazol-5-yl]ethyl}phenyl)cyclopropanesulfonamide]
2.16 nM	–	C[C@]12Cc3cnn(-c4ccc(F)c(F)c4)c3C=C1CC[C@@]2(O)CCc1cccc(F)c1C(N)=O [Example 168, 2-{2-[(4α,5R)-1-(3,4-difluorophenyl)-5-hydroxy-4α-methyl-1,4,4α,5,6,7-hexahydrocyclopenta[f]indazol-5-yl]ethyl}-6-fluorobenzamide]
1.2 nM	–	CC(C)[C@@H](C)NC(=O)c1c(F)cccc1CC[C@]1(O)CCC2=Cc3c(cnn3-c3ccc(F)cc3)C[C@@]21C [Example 48, N-[(1R)-1,2-dimethylpropyl]-2-fluoro-6-{2-[(4αS,5R)-1-(4-fluorophenyl)-5-hydroxy-4α-methyl-1,4,4α,5,6,7-hexahydrocyclopenta[f]indazol-5-yl]ethyl}benzamide]
1.32 nM	–	C[C@]12Cc3cnn(-c4ccc(F)cc4)c3C=C1CC[C@@]2(O)CCc1ccccc1S(=O)(=O)C1CC1 [Example 144, (4αS,5R)-5-{2-[2-(cyclopropylsulfonyl)phenyl]ethyl}-1-(4-fluorophenyl)-4α-methyl-1,4,4α,5,6,7-hexahydrocyclopenta[f]indazol-5-ol]
3.55 nM	–	CC1(NC(=O)c2ccccc2CC[C@]2(O)CCC3=Cc4c(cnn4-c4ccc(F)cc4)C[C@@]32C)CC1 [Example 28, 2-{2-[(4αS,5R)-1-(4-fluorophenyl)-5-hydroxy-4α-methyl-1,4,4α,5,6,7-hexahydrocyclopenta[f]indazol-5-yl]ethyl}-N-(1-methylcyclopropyl)benzamide]
0.56 nM	–	CC(C)S(=O)(=O)NCc1c(F)cccc1CC[C@]1(O)CCC2=Cc3c(cnn3-c3ccc(F)cc3)C[C@@]21C [Example 83, N-(2-fluoro-6-{2-[(4αS,5R)-1-(4-fluorophenyl)-5-hydroxy-4α-methyl-1,4,4α,5,6,7-hexahydrocyclopenta[f]indazol-5-yl]ethyl}benzyl)propane-2-sulfonamide]
–	0.32 nM	C[C@]12Cc3cnn(-c4ccc(F)cc4)c3C=C1CCC[C@@]2(O)CCc1ccccc1Cl [Example 41 WO 2004/075840 A2, reference compound]
0.83 nM	–	COC(=O)C(C)(C)NC(=O)c1c(F)cccc1CC[C@]1(O)CCC2=Cc3c(cnn3-c3ccc(F)cc3)C[C@@]21C [Example 41, methyl N-(2-fluoro-6-{2-[(4αS,5R)-1-(4-fluorophenyl)-5-hydroxy-4α-methyl-1,4,4α,5,6,7-hexahydrocyclopenta[f]indazol-5-yl]ethyl}benzoyl)-2-methylalaninate]
0.57 nM	–	C[C@]12Cc3cnn(-c4ccc(F)cc4)c3C=C1CC[C@@]2(O)CCc1cccc(F)c1CNS(=O)(=O)C1CC1 [Example 88, N-(2-fluoro-6-{2-[(4αS,5R)-1-(4-fluorophenyl)-5-hydroxy-4α-methyl-1,4,4α,5,6,7-hexahydrocyclopenta[f]indazol-5-yl]ethyl}benzyl)cyclopropanesulfonamide]
